Assay results from patent publication US11149037B2, “Pyrazole MAGL inhibitors” (H. Lundbeck A/S, priority 2017, dated 2021).

Legend:
Type in all cases: biochemical
[1] = target: FAAH (Mus musculus (Mouse), UniProt O08914); assay: In vitro competitive activity-based protein profiling, mouse proteomes (brain membrane fraction or cell lysates); details: mouse proteome, read-out: FAAH % inh. 1 μM (mouse)
Procedure: (§1) In Vitro Competitive Activity-Based Protein Profiling.
(§2) Proteomes (mouse brain membrane fraction or cell lysates for mouse assays; human prefrontal cortex or PC3 cell membrane fractions for human assays) (50 μL, 1.0 or 2.0 mg/mL total protein concentration) were preincubated with varying concentrations of inhibitors at 37° C. After 30 min, FP-Rh or JW912 or HT-01 (1.0 μL, 50 μM in DMSO) was added and the mixture was incubated for another 30 min at 37° C. Reactions were quenched with SDS loading buffer (15 μL-4×) and run on SDS-PAGE. Following gel imaging, serine hydrolase activity was determined by measuring fluorescent intensity of gel bands corresponding to MAGL and FAAH using ImageJ 1.43u software.

[2] = target: MAGL (Mus musculus (Mouse), UniProt O35678); assay: as above; details: mouse proteome, read-out: MAGL % inh. 1 μM (mouse)
Chain of MAGL (Mus musculus (Mouse), UniProt O35678) (O35678 whole entry): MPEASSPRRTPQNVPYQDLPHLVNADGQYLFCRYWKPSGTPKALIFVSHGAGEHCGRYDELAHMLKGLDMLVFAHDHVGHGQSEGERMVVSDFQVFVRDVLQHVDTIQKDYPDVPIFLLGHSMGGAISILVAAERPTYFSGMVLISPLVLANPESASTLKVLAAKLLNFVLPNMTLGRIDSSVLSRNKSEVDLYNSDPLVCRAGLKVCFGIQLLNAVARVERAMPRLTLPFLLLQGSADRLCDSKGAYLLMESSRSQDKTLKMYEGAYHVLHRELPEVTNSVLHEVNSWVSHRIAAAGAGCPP
Procedure: as §1, §2

[3] = target: MAGL (Homo sapiens (Human), UniProt Q99685); assay: In vitro competitive activity-based protein profiling, human proteomes (prefrontal cortex or PC3 cell membrane fractions); details: human proteome; for inhibition at 1 µM: read-out: MAGL % inh. 1 μM (human)
Chain of MAGL (Homo sapiens (Human), UniProt Q99685) (Q99685 whole entry): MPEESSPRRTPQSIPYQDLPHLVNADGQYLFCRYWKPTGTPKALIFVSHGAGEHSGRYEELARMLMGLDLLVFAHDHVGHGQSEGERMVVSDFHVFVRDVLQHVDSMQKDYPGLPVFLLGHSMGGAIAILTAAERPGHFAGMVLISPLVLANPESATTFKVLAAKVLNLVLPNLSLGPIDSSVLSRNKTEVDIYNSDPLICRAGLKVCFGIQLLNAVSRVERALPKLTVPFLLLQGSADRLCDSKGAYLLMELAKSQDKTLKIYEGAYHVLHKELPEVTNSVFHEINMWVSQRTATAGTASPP
Procedure: as §1, §2

Chain of FAAH (O08914 whole entry): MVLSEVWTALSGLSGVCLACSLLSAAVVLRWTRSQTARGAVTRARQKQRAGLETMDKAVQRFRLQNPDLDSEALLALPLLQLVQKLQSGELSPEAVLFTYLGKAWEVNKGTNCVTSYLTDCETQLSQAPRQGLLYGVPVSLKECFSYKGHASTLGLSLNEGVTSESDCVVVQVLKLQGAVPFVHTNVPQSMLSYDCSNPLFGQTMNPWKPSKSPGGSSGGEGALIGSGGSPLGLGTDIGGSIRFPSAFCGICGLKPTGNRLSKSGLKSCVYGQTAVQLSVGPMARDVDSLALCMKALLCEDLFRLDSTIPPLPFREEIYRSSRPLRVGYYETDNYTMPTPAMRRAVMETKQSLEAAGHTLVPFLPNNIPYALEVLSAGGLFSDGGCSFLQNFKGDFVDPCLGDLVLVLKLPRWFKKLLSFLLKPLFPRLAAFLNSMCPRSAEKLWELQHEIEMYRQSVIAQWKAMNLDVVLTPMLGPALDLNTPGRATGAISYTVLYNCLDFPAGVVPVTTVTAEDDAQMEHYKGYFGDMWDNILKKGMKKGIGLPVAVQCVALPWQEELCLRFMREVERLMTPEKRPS

Compound | inhibition at 1 µM [1] | inhibition at 1 µM [2] | inhibition at 1 µM [3] | IC50 [3] | inhibition at 10 µM ([3]; 10 μM, read-out: MAGL % inh. (human) @ 10 μM)
CC(=O)Nc1ccn(C(=O)N2C[C@H]3C[C@H](N(C)Cc4ccccc4Cl)C[C@H]3C2)n1 [Example 36, N-(1-((3aR,5s,6aS)-5-((2-Chlorobenzyl)(methyl)amino)octahydrocyclopenta[c]pyrrole-2-carbonyl)-1H-pyrazol-3-yl)acetamide] | > 75% | > 75% |  |  | 
CC(=O)Nc1ccn(C(=O)N2C[C@H]3C[C@@H](N(C)Cc4ccccc4Cl)C[C@H]3C2)n1 [Example 37, N-(1-((3aR,5r,6aS)-5-((2-Chlorobenzyl)(methyl)amino)octahydrocyclopenta[c]pyrrole-2-carbonyl)-1H-pyrazol-3-yl)acetamide] | > 75% | > 75% |  |  | 
CS(=O)(=O)Nc1ccn(C(=O)N2CC3CN(Cc4cccc(Oc5ccc(Cl)cc5)c4)CC3C2)n1 (stereo not shown) [Example 41, N-(1-(5-(3-(4-Chlorophenoxy)benzyl)octahydropyrrolo[3,4-c]pyrrole-2-carbonyl)-1H-pyrazol-3-yl)methanesulfonamide] | > 75% | 0 to 25% |  |  | 
CC(=O)Nc1ccn(C(=O)N2CC3CN(Cc4ccc(Oc5ccc(Cl)cc5)cc4)CC3C2)n1 (stereo not shown) [Example 44, N-(1-(5-(4-(4-Chlorophenoxy)benzyl)octahydropyrrolo[3,4-c]pyrrole-2-carbonyl)-1H-pyrazol-3-yl)acetamide] | > 75% | > 75% |  |  | 
CC(C)C(=O)Nc1ccn(C(=O)N2CCN(Cc3ccc(C(F)(F)F)cc3N3CCCC3)CC2)n1 [Example 161, N-(1-(4-(2-(Pyrrolidin-1-yl)-4-(trifluoromethyl)benzyl)piperazine-1-carbonyl)-1H-pyrazol-3-yl)isobutyramide] | 0 to 25% | > 75% |  |  | 
CC(=O)Nc1ccn(C(=O)N2CC3CN(Cc4ccc(Cl)cc4)CC3C2)n1 (stereo not shown) [Example 170, N-(1-(5-(4-Chlorobenzyl)octahydropyrrolo[3,4-c]pyrrole-2-carbonyl)-1H-pyrazol-3-yl)acetamide] | 50 to 75% | > 75% |  |  | 
CC(=O)Nc1ccn(C(=O)N2CC3CN(Cc4ccc(N5CCOCC5)c(C(F)(F)F)c4)CC3C2)n1 (stereo not shown) [Example 171, N-(1-(5-(4-Morpholino-3-(trifluoromethyl)benzyl)octahydropyrrolo[3,4-c]pyrrole-2-carbonyl)-1H-pyrazol-3-yl)acetamide] | 50 to 75% | > 75% |  |  | 
CC(=O)Nc1ccn(C(=O)N2CC3CN(Cc4ccc(Cl)cc4Cl)CC3C2)n1 (stereo not shown) [Example 174, N-(1-(5-(2,4-Dichlorobenzyl)octahydropyrrolo[3,4-c]pyrrole-2-carbonyl)-1H-pyrazol-3-yl)acetamide] | 50 to 75% | > 75% |  |  | 
CN(Cc1cc(Cl)ccc1C(F)(F)F)CC1CCN(C(=O)n2ccc(NS(C)(=O)=O)n2)CC1 [Example 184, N-(1-(4-(((5-Chloro-2-(trifluoromethyl)benzyl)(methyl)amino)methyl)piperidine-1-carbonyl)-1H-pyrazol-3-yl)methanesulfonamide] |  | > 75% | > 75% | < 0.1 µM | 
C[C@H]1CN(C(=O)n2ccc(NS(C)(=O)=O)n2)CCN1Cc1ccc(C(F)(F)F)c(N2CCC(F)CC2)c1 [Example 187, (S)-N-(1-(4-(3-(4-Fluoropiperidin-1-yl)-4-(trifluoromethyl)benzyl)-3-methylpiperazine-1-carbonyl)-1H-pyrazol-3-yl)methanesulfonamide] |  | > 75% | > 75% | < 0.1 µM | 

Continued, values first:

inhibition at 1 µM [1] | inhibition at 1 µM [2] | inhibition at 1 µM [3] | IC50 [3] | inhibition at 10 µM ([3]; 10 μM, read-out: MAGL % inh. (human) @ 10 μM) | Compound
 | > 75% | > 75% |  |  | CC(=O)Nc1ccn(C(=O)N2CC3CN(Cc4cc(C(F)(F)F)cc(C5(C(=O)O)CCCC5)c4)CC3C2)n1 (stereo not shown) [Example 191, 1-(3-((5-(3-Acetamido-1H-pyrazole-1-carbonyl)hexahydropyrrolo[3,4-c]pyrrol-2(1H)-yl)methyl)-5-(trifluoromethyl)phenyl)cyclopentane-1-carboxylic acid]
 | > 75% | > 75% |  |  | C[C@H]1CN(C(=O)n2ccc(NS(C)(=O)=O)n2)CCN1Cc1ccc(C(F)(F)F)c(N2CC[C@H](F)C2)c1 [Example 192, N-(1-((S)-4-(3-((S)-3-Fluoropyrrolidin-1-yl)-4-(trifluoromethyl)benzyl)-3-methylpiperazine-1-carbonyl)-1H-pyrazol-3-yl)methanesulfonamide]
 | > 75% | > 75% |  |  | CC(=O)Nc1ccn(C(=O)N2CCC(N(C)Cc3cc(C(F)(F)F)cc(C4(C(=O)O)CCCC4)c3)CC2)n1 [Example 193, 1-(3-(((1-(3-Acetamido-1H-pyrazole-1-carbonyl)piperidin-4-yl)(methyl)amino)methyl)-5-(trifluoromethyl)phenyl)cyclopentane-1-carboxylic acid]
 | 0 to 25% |  |  | 50 to 75% | C[C@H]1C[C@@H](N(C)Cc2ccc(Cl)c(N3CC4COCC4C3)c2)CCN1C(=O)n1ccc(NS(C)(=O)=O)n1 (stereo partly drawn) [Example 194, N-(1-((2S,4S)-4-((4-chloro-3-(Tetrahydro-1H-furo[3,4-c]pyrrol-5(3H)-yl)benzyl)(methyl)amino)-2-methylpiperidine-1-carbonyl)-1H-pyrazol-3-yl)methanesulfonamide]
 | > 75% | > 75% |  |  | CS(=O)(=O)Nc1ccn(C(=O)N2CCC3(CCCN3Cc3ccc(Cl)c(N4CCCC4)c3)CC2)n1 [Example 195, N-(1-(1-(4-Chloro-3-(pyrrolidin-1-yl)benzyl)-1,8-diazaspiro[4.5]decane-8-carbonyl)-1H-pyrazol-3-yl)methanesulfonamide]
 | > 75% | > 75% |  |  | CN(Cc1ccc(Cl)cc1N1CCC(F)CC1)C1(C)CCN(C(=O)n2ccc(NS(C)(=O)=O)n2)CC1 [Example 196, N-(1-(4-((4-Chloro-2-(4-fluoropiperidin-1-yl)benzyl)(methyl)amino)-4-methylpiperidine-1-carbonyl)-1H-pyrazol-3-yl)methanesulfonamide]
 | 50 to 75% | > 75% |  |  | CN(Cc1ccc(Cl)cc1N1CCOCC1)C1(C)CCN(C(=O)n2ccc(NS(C)(=O)=O)n2)CC1 [Example 198, N-(1-(4-((4-Chloro-2-morpholinobenzyl)(methyl)amino)-4-methylpiperidine-1-carbonyl)-1H-pyrazol-3-yl)methanesulfonamide]
 | > 75% | > 75% |  |  | C[C@@H]1CCCN1c1cc(CN2CCN(C(=O)n3ccc(NS(C)(=O)=O)n3)C[C@@H]2C)ccc1Cl [Example 199, N-(1-((S)-4-(4-Chloro-3-((R)-2-methylpyrrolidin-1-yl)benzyl)-3-methylpiperazine-1-carbonyl)-1H-pyrazol-3-yl)methanesulfonamide]
 | > 75% | > 75% |  |  | C[C@@H]1CN(C(=O)n2ccc(NS(C)(=O)=O)n2)CCN1Cc1ccc(Cl)c(N2CCC[C@H]2C)c1 [Example 200, N-(1-((R)-4-(4-Chloro-3-((R)-2-methylpyrrolidin-1-yl)benzyl)-3-methylpiperazine-1-carbonyl)-1H-pyrazol-3-yl)methanesulfonamide]
 | > 75% | > 75% |  |  | C[C@@H]1CN(C(=O)n2ccc(NS(C)(=O)=O)n2)CCN1Cc1ccc(Cl)c(N2CCC(F)(F)CC2)c1 [Example 201, (R)-N-(1-(4-(4-Chloro-3-(4,4-difluoropiperidin-1-yl)benzyl)-3-methylpiperazine-1-carbonyl)-1H-pyrazol-3-yl)methanesulfonamide]
 | > 75% | > 75% |  |  | C[C@@H]1CN(C(=O)n2ccc(NS(C)(=O)=O)n2)CCN1Cc1ccc(Cl)c(N2CCC(C(F)(F)F)CC2)c1 [Example 202, (R)-N-(1-(4-(4-Chloro-3-(4-(trifluoromethyl)piperidin-1-yl)benzyl)-3-methylpiperazine-1-carbonyl)-1H-pyrazol-3-yl)methanesulfonamide]
 | > 75% | > 75% |  |  | CS(=O)(=O)Nc1ccn(C(=O)N2CCC(OCc3ccc(Cl)c(N4CCC(F)CC4)c3)CC2)n1 [Example 209, N-(1-(4-((4-Chloro-3-(4-fluoropiperidin-1-yl)benzyl)oxy)piperidine-1-carbonyl)-1H-pyrazol-3-yl)methanesulfonamide]
 | > 75% | > 75% |  |  | CS(=O)(=O)Nc1ccn(C(=O)N2CC[C@H](Oc3ccc(C(F)(F)F)c(N4CCC(F)CC4)c3)[C@@H](F)C2)n1 [Example 210, N-(1-((3S,4S)-3-Fluoro-4-(3-(4-fluoropiperidin-1-yl)-4-(trifluoromethyl)phenoxy)piperidine-1-carbonyl)-1H-pyrazol-3-yl)methanesulfonamide]
 | > 75% | > 75% |  |  | C[C@H]1CN(C(=O)n2ccc(NS(C)(=O)=O)n2)CCN1Cc1cc(N2CCC(F)CC2)c(Cl)cn1 [Example 223, (S)-N-(1-(4-((5-Chloro-4-(4-fluoro-piperidin-1-yl)pyridin-2-yl)methyl)-3-methyl-piperazine-1-carbonyl)-1H-pyrazol-3-yl)methane-sulfonamide]
 | > 75% | > 75% |  |  | C[C@@H]1CN(C(=O)n2ccc(NS(C)(=O)=O)n2)CCN1Cc1ccc(Cl)c(N2CCCC2)c1 [Example 224, (R)-N-(1-(4-(4-Chloro-3-(pyrrolidin-1-yl)benzyl)-3-methyl-piperazine-1-carbonyl)-1H-pyrazol-3-yl)methane-sulfonamide]
